# System: glucosyltransferase
# Test: Inhibition of water-insoluble glucan formation by crude glucosyltransferase (14C-sucrose, scintillation counting)
# Format: biochemical, Streptococcus mutans OMZ 176
# Settings: Water-insoluble glucan formation vs control, 60 minutes at 37°C, pH 6.8
# Procedure: Crude glucosyltransferase was refined from Streptococcus mutans OMZ 176 according to the method described by Mukasa and Slads in Infect. Immun., 8, 555 (1973) and 9, 419 (1974).
# The above GTF, labeled sucrose and the tea polyphenol compounds were mixed together to the following final concentrations, and was regulated with a 50 mM phosphate buffer (with pH 6.8). GTF: 0.34 mg protein/ml 0.1 mM (¹⁴C) sucrose: 0.1 »Ci/»l Present agent: 1 to 10 mg/ml or 1 to 10 mM.
# Twenty (20) »l of the mixture solution were subjected to a reaction for 60 minutes at 37°C. After the completion of the reaction, 5 »l of the reaction mixture and 5 »l of supernatant obtained by centrifugation of the reaction mixture at 5,500 x g for 3 minutes were applied to a filter paper respectively, and then developed with a developing solution of butanol-pyridine-water (6:4:3), followed by counting with a scintillation counter. The amount of water-insoluble glucan was found by a difference between the measurements of the reaction mixture and the supernatant. The GTF inhibiting ability is expressed in terms of the rate of inhibiting the formation of water-insoluble glucan with respect to a control to which the tea polyphenol compounds were not added.
molecule,measurement,setting,value
Oc1cc(O)c2c(c1)O[C@H](c1ccc(O)c(O)c1)[C@@H](O)C2 [(+)-Catechin],Inhibition (%),sample concentration 1.0 mM,22%
same,Inhibition (%),sample concentration 10.0 mM,62%
Oc1cc(O)c2c(c1)O[C@@H](c1ccc(O)c(O)c1)[C@@H](O)C2 [(+)-Epicatechin],Inhibition (%),sample concentration 1.0 mM,12%
same,Inhibition (%),sample concentration 10.0 mM,42%
Oc1cc(O)c2c(c1)O[C@H](c1cc(O)c(O)c(O)c1)[C@@H](O)C2 [(+)-Gallocatechin],Inhibition (%),sample concentration 1.0 mM,15%
same,Inhibition (%),sample concentration 10.0 mM,51%
O=C(O[C@@H]1Cc2c(O)cc(O)cc2O[C@H]1c1cc(O)c(O)c(O)c1)c1cc(O)c(O)c(O)c1 [(-)-Gallocatechin gallate],Inhibition (%),sample concentration 1.0 mM,47%
same,Inhibition (%),sample concentration 10.0 mM,95%
O=c1c(O)cc([C@H]2Oc3cc(O)cc(O)c3C[C@H]2O)cc2c([C@H]3Oc4cc(O)cc(O)c4C[C@H]3O)cc(O)c(O)c12 [Free theaflavin],Inhibition (%),sample concentration 1.0 mM,57%
same,Inhibition (%),sample concentration 10.0 mM,98%
O=C(O[C@@H]1Cc2c(O)cc(O)cc2O[C@@H]1c1cc(O)c(=O)c2c(O)c(O)cc([C@H]3Oc4cc(O)cc(O)c4C[C@H]3OC(=O)c3cc(O)c(O)c(O)c3)c2c1)c1cc(O)c(O)c(O)c1 [Theaflavin digallate],Inhibition (%),sample concentration 1.0 mM,56%
same,Inhibition (%),sample concentration 10.0 mM,98%
O=C(O[C@@H]1Cc2c(O)cc(O)cc2O[C@@H]1c1cc(=O)c(O)c2c(O)c(O)cc([C@H]3Oc4cc(O)cc(O)c4C[C@H]3O)c2c1)c1cc(O)c(O)c(O)c1 [Theaflavin monogallate A],Inhibition (%),sample concentration 1.0 mM,64%
same,Inhibition (%),sample concentration 10.0 mM,97%
O=C(O[C@@H]1Cc2c(O)cc(O)cc2O[C@@H]1c1cc(O)c(O)c2c(=O)c(O)cc([C@H]3Oc4cc(O)cc(O)c4C[C@H]3O)cc12)c1cc(O)c(O)c(O)c1 [Theaflavin monogallate B],Inhibition (%),sample concentration 1.0 mM,47%
same,Inhibition (%),sample concentration 10.0 mM,98%
(-)-Catechin,Inhibition (%),sample concentration 1.0 mM,15%
same,Inhibition (%),sample concentration 10.0 mM,45%
(-)-Epicatechin,Inhibition (%),sample concentration 1.0 mM,5%
same,Inhibition (%),sample concentration 10.0 mM,42%
(-)-Epicatechin gallate,Inhibition (%),sample concentration 1.0 mM,35%
same,Inhibition (%),sample concentration 10.0 mM,83%
(-)-Gallocatechin,Inhibition (%),sample concentration 1.0 mM,20%
same,Inhibition (%),sample concentration 10.0 mM,30%

# From patent EP0415126B1, “Anti-dental plaque agents” (MITSUI NORIN CO., LTD., priority 1989, dated 1991)
